“And” between values parts separate entries of the source, which are not always exact repeats. Identical values can stand only once. Toxic doses and inconclusive results are not listed. The calls were made as follows: active = survival T/C of 150% or more; inactive = T/C below 125% in these data.
Test system: P388 leukemia ip, CD2F1 mice, survival T/C
Test: NCI In Vivo Anticancer Drug Screen. Data for tumor model P388 Leukemia (intraperitoneal) in CD2F1 (CDF1) mice
Details: endpoint: median survival time, higher = longer survival
In short: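 Mice carrying the transplanted tumor received test compound or vehicle. Survival was recorded in each group, and the value is the treated-group measurement divided by that of the vehicle-treated control group.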

[1] = dose: 50.0 mg/kg/injection, schedule: Q01DX009 (ip), vehicle: saline
[2] = dose: 100.0 mg/kg/injection, schedule: Q01DX009 (ip), vehicle: saline
[3] = dose: 200.0 mg/kg/injection, schedule: Q01DX009 (ip), vehicle: saline
[4] = dose: 50.0 mg/kg/injection, schedule: Q01DX009 (ip), vehicle: saline with Tween-80
[5] = dose: 100.0 mg/kg/injection, schedule: Q01DX009 (ip), vehicle: saline with Tween-80
[6] = dose: 200.0 mg/kg/injection, schedule: Q01DX009 (ip), vehicle: saline with Tween-80
[7] = dose: 100.0 mg/kg/injection, schedule: Q04DX002 (ip), vehicle: saline with Tween-80
[8] = dose: 50.0 mg/kg/injection, schedule: Q01DX009 (ip), vehicle: Klucel (hydroxypropylcellulose) (HPC)
[9] = dose: 100.0 mg/kg/injection, schedule: Q01DX009 (ip), vehicle: Klucel (hydroxypropylcellulose) (HPC)
[10] = dose: 200.0 mg/kg/injection, schedule: Q01DX009 (ip), vehicle: Klucel (hydroxypropylcellulose) (HPC)

Measured: T/C

CNC(=O)OCc1c(COC(=O)NC)c(-c2ccccc2)n(-c2ccccc2)c1C
active: dose: 12.5 mg/kg/injection, schedule: Q01DX005 (ip), vehicle: saline with Tween-80 150 % of control | dose: 25.0 mg/kg/injection, schedule: Q01DX005 (ip), vehicle: saline with Tween-80 169 % of control | dose: 50.0 mg/kg/injection, schedule: Q01DX005 (ip), vehicle: saline with Tween-80 157 % of control and 176 % of control
inactive: dose: 100.0 mg/kg/injection, schedule: Q01DX005 (ip), vehicle: saline with Tween-80 118 % of control

CSc1nccc(=O)n1-c1ccccc1C
inactive: dose: 100.0 mg/kg/injection, schedule: Q04DX002 (ip), vehicle: Klucel (hydroxypropylcellulose) (HPC) 100 % of control | dose: 200.0 mg/kg/injection, schedule: Q04DX002 (ip), vehicle: Klucel (hydroxypropylcellulose) (HPC) 102 % of control

Cc1cc(OCC(=O)N/N=C/c2ccc(N(CCCl)CCCl)cc2)c2ccc(Cl)cc2n1
inactive: [1] 95 % of control and 97 % of control | [2] 97 % of control | [3] 101 % of control and 87 % of control

CCCCCSc1ncnc2nc[nH]c12
inactive: [4] 100 % of control | [5] 109 % of control | dose: 100.05 mg/kg/injection, schedule: Q04DX003 (ip), vehicle: saline with Tween-80 95 % of control | [6] 104 % of control | dose: 200.0 mg/kg/injection, schedule: Q04DX003 (ip), vehicle: saline with Tween-80 104 % of control

Cn1c(=O)c2c(nc(CCCCc3nc4c(c(=O)n(C)c(=O)n4C)n3C)n2C)n(C)c1=O
inactive: dose: 1.56 mg/kg/injection, schedule: Q01DX009 (ip), vehicle: saline with Tween-80 87 % of control | dose: 3.13 mg/kg/injection, schedule: Q01DX009 (ip), vehicle: saline with Tween-80 89 % of control | dose: 6.25 mg/kg/injection, schedule: Q01DX009 (ip), vehicle: saline with Tween-80 88 % of control | [4] 86 % of control

C/C(=N\N=C(\N)N1CCOCC1)c1ccc2c(c1)Cc1ccccc1-2
inactive: [7] 101 % of control

CC(=O)OC1CCC2(C)CCC3C(OC(=O)C3(C)[Se]c3ccccc3)C2C1C (stereo unspecified)
inactive: [7] 91 % of control

O=C(NCCNc1ccccc1)C12CC3CC(CC(C3)C1)C2
inactive: dose: 50.0 mg/kg/injection, schedule: Q01DX005 (ip), vehicle: Klucel (hydroxypropylcellulose) (HPC) 100 % of control | dose: 100.0 mg/kg/injection, schedule: Q01DX005 (ip), vehicle: Klucel (hydroxypropylcellulose) (HPC) 95 % of control | dose: 200.0 mg/kg/injection, schedule: Q01DX005 (ip), vehicle: Klucel (hydroxypropylcellulose) (HPC) 95 % of control

O=S(=O)(Nc1cc2c3ccccc3ccc2c2ccccc12)c1ccccc1
inactive: [8] 96 % of control | [9] 105 % of control | [10] 100 % of control

Cc1[nH]c2ccc(N(C)C)cc2c(=O)c1CN1CCN(C)CC1
inactive: [4] 111 % of control | [5] 111 % of control | [6] 110 % of control

CNC1=C(C(=O)c2ccccc2)CCC1
inactive: dose: 6.25 mg/kg/injection, schedule: Q01DX009 (ip), vehicle: saline 104 % of control | dose: 12.5 mg/kg/injection, schedule: Q01DX009 (ip), vehicle: saline 104 % of control | dose: 25.0 mg/kg/injection, schedule: Q01DX009 (ip), vehicle: saline 101 % of control | [1] 101 % of control | [2] 104 % of control and 87 % of control and 95 % of control | [3] 124 % of control and 90 % of control and 95 % of control

CCOC(=O)CNC(=O)Nc1c(C)n(C)n(-c2ccccc2)c1=O
inactive: [1] 103 % of control | [2] 100 % of control | [3] 97 % of control

Cc1cc([Se][Se]c2cc(C)c(C)cc2[N+](=O)[O-])c([N+](=O)[O-])cc1C
inactive: dose: 60.0 mg/kg/injection, schedule: Q01DX005 (ip), vehicle: saline with Tween-80 92 % of control | dose: 120.0 mg/kg/injection, schedule: Q01DX005 (ip), vehicle: saline with Tween-80 93 % of control | dose: 240.0 mg/kg/injection, schedule: Q01DX005 (ip), vehicle: saline with Tween-80 91 % of control

C=C(C(C)=O)c1ccccc1
inactive: dose: 25.0 mg/kg/injection, schedule: Q01DX009 (ip), vehicle: Klucel (hydroxypropylcellulose) (HPC) 100 % of control | [8] 98 % of control | [9] 100 % of control | [10] 107 % of control | dose: 400.0 mg/kg/injection, schedule: Q01DX009 (ip), vehicle: Klucel (hydroxypropylcellulose) (HPC) 107 % of control
